Patent US8802597B2, “Herbicidal pyrimidines” (E I du Pont de Nemours and Company, priority 2003, dated 2014)
Read-outs that look alike come from different tables or passages of the source.

Columns and labels:
Format in all cases: in vivo
[1] = test system: redroot pigweed (Amaranthus retroflexus); experiment: Test A pre/postemergence; conditions: Amaranthus retroflexus, 240 h, read-out: Plant response rating, Pigweed; for pest or weed control at 125 g/ha: 125 g ai/ha; for pest or weed control at 500 g/ha: 500 g ai/ha
How it was run: (§1)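 Soil: loam blended with sand. Formulation: non-phytotoxic solvent mixture with surfactant. Timing: preemergence soil spray plus concurrent postemergence spray (plants 2–10 cm, 1–2 leaves). Readout: visual injury versus untreated controls at ~10 days, 0–100.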

[2] = test system: velvetleaf (Abutilon theophrasti); experiment: Test A pre/postemergence; conditions: Abutilon theophrasti, 240 h, read-out: Plant response rating, Velvetleaf; for pest or weed control at 125 g/ha: 125 g ai/ha; for pest or weed control at 500 g/ha: 500 g ai/ha
How it was run: as §1

[3] = test system: giant foxtail (Setaria faberi); experiment: Test A pre/postemergence; conditions: Setaria faberi, 240 h, read-out: Plant response rating, Foxtail, Giant; for pest or weed control at 125 g/ha: 125 g ai/ha; for pest or weed control at 500 g/ha: 500 g ai/ha
How it was run: as §1

[4] = test system: crabgrass (Digitaria sanguinalis); experiment: Test A pre/postemergence; conditions: Digitaria sanguinalis, 240 h, read-out: Plant response rating, Crabgrass; for pest or weed control at 125 g/ha: 125 g ai/ha; for pest or weed control at 500 g/ha: 500 g ai/ha
How it was run: as §1

[5] = test system: barnyardgrass (Echinochloa crus-galli); experiment: Test A pre/postemergence; conditions: Echinochloa crus-galli, 240 h, read-out: Plant response rating, Barnyardgrass; for pest or weed control at 125 g/ha: 125 g ai/ha; for pest or weed control at 500 g/ha: 500 g ai/ha
How it was run: as §1

[6] = test system: morningglory (Ipomoea spp.); experiment: Test A pre/postemergence; conditions: Ipomoea, 240 h, read-out: Plant response rating, Morningglory; for pest or weed control at 125 g/ha: 125 g ai/ha; for pest or weed control at 500 g/ha: 500 g ai/ha
How it was run: as §1

corn (Zea mays) = experiment: Test C pre/postemergence; conditions: Zea mays; for Corn plant response rating (crop injury, 0 = no effect, 100 = complete kill) at 31 g/ha: 31 g ai/ha; for Corn plant response rating (crop injury, 0 = no effect, 100 = complete kill) at 62 g/ha: 62 g ai/ha; for Corn plant response rating (crop injury, 0 = no effect, 100 = complete kill) at 125 g/ha: 125 g ai/ha
How it was run: (§2)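 We sprayed seeded pots preemergence and 2–18 cm seedlings postemergence with test chemicals in a non-phytotoxic solvent mixture including surfactant. Greenhouse plants were visually compared with untreated controls at 12 to 14 days and scored 0 (no effect) to 100 (complete control).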

[7] = test system: cocklebur (Xanthium strumarium); experiment: Test C pre/postemergence; conditions: Xanthium strumarium; for pest or weed control at 31 g/ha: 31 g ai/ha; for pest or weed control at 62 g/ha: 62 g ai/ha; for pest or weed control at 125 g/ha: 125 g ai/ha
How it was run: as §2

[8] = test system: lambsquarters (Chenopodium album); experiment: Test C pre/postemergence; conditions: Chenopodium album; for pest or weed control at 31 g/ha: 31 g ai/ha; for pest or weed control at 62 g/ha: 62 g ai/ha; for pest or weed control at 125 g/ha: 125 g ai/ha
How it was run: as §2

[9] = test system: common ragweed (Ambrosia elatior); experiment: Test C pre/postemergence; conditions: Ambrosia artemisiifolia; for pest or weed control at 31 g/ha: 31 g ai/ha; for pest or weed control at 62 g/ha: 62 g ai/ha
How it was run: as §2

[10] = test system: chickweed (Stellaria media); experiment: Test C postemergence; conditions: Stellaria media, post-emergence
How it was run: as §2

[11] = post-emergence, Postemergence, 0 to 100 scale (0 no effect, 100 complete control)
[12] = pre-emergence, Preemergence, 0 to 100 scale where 0 is no effect and 100 is complete control, approximately ten days
[13] = post-emergence, Postemergence, read-out: Plant response rating (scale of 0 to 100), Corn
[14] = pre-emergence, Preemergence, scale 0 to 100, 0 no effect, 100 complete control, read-out: Plant response rating, Corn
[15] = post-emergence, Postemergence, read-out: Plant response rating (scale of 0 to 100), Cocklebur
[16] = pre-emergence, Preemergence, scale 0 to 100, 0 no effect, 100 complete control, read-out: Plant response rating, Cocklebur
[17] = post-emergence, Postemergence, read-out: Plant response rating (scale of 0 to 100), Lambsquarters
[18] = pre-emergence, Preemergence, scale 0 to 100, 0 no effect, 100 complete control, read-out: Plant response rating, Lambsquarters
[19] = post-emergence, Postemergence, read-out: Plant response rating (scale of 0 to 100), Ragweed
[20] = pre-emergence, Preemergence, scale 0 to 100, 0 no effect, 100 complete control, read-out: Plant response rating, Ragweed

## Nc1nc(C2CC2)nc(C(=O)OCc2ccccc2)c1Cl [Compound 78, phenylmethyl 6-amino-5-chloro-2-cyclopropyl-4-pyrimidinecarboxylate]
[1]; [11]
  pest or weed control at 125 g/ha: 85%
  pest or weed control at 500 g/ha: 95%
[1]; [12]
  pest or weed control at 125 g/ha: 75%
  pest or weed control at 500 g/ha: 90%
[2]; [11]
  pest or weed control at 125 g/ha: 75%
  pest or weed control at 500 g/ha: 90%
[2]; [12]
  pest or weed control at 125 g/ha: 80%
  pest or weed control at 500 g/ha: 85%
[3]; [11]
  pest or weed control at 125 g/ha: 70%
  pest or weed control at 500 g/ha: 80%
[3]; [12]
  pest or weed control at 125 g/ha: 10%
  pest or weed control at 500 g/ha: 65%
[4]; [11]
  pest or weed control at 125 g/ha: 70%
  pest or weed control at 500 g/ha: 80%
[4]; [12]
  pest or weed control at 125 g/ha: 55%
  pest or weed control at 500 g/ha: 70%
[5]; [11]
  pest or weed control at 125 g/ha: 80%
  pest or weed control at 500 g/ha: 90%
[5]; [12]
  pest or weed control at 125 g/ha: 45%
  pest or weed control at 500 g/ha: 75%
[6]; [11]
  pest or weed control at 125 g/ha: 80%
  pest or weed control at 500 g/ha: 90%
[6]; [12]
  pest or weed control at 125 g/ha: 90%
  pest or weed control at 500 g/ha: 100%
Corn (Zea mays); [13]
  Corn plant response rating (crop injury, 0 = no effect, 100 = complete kill) at 31 g/ha: 40%
  Corn plant response rating (crop injury, 0 = no effect, 100 = complete kill) at 62 g/ha: 40%
Corn (Zea mays); post-emergence, Postemergence, scale 0 to 100 (0 no effect, 100 complete control), read-out: Corn plant response rating
  Corn plant response rating (crop injury, 0 = no effect, 100 = complete kill) at 125 g/ha: 40%
Corn (Zea mays); post-emergence, Postemergence, 250 g ai/ha, scale 0 to 100
  Corn plant response rating (crop injury, 0 = no effect, 100 = complete kill) at 250 g/ha: 40%
Corn (Zea mays); pre-emergence, Preemergence, 16 g ai/ha, scale 0 to 100, 0 no effect, 100 complete control, read-out: Plant response rating, Corn
  Corn plant response rating (crop injury, 0 = no effect, 100 = complete kill) at 16 g/ha: 0%
Corn (Zea mays); [14]
  Corn plant response rating (crop injury, 0 = no effect, 100 = complete kill) at 31 g/ha: 0%
  Corn plant response rating (crop injury, 0 = no effect, 100 = complete kill) at 62 g/ha: 20%
Corn (Zea mays); pre-emergence, Preemergence, scale 0 to 100, read-out: Plant response rating, Corn
  Corn plant response rating (crop injury, 0 = no effect, 100 = complete kill) at 125 g/ha: 40%
[7]; [15]
  pest or weed control at 31 g/ha: 90%
  pest or weed control at 62 g/ha: 100%
[7]; post-emergence, Postemergence, scale 0 to 100 (0 no effect, 100 complete control), read-out: Cocklebur plant response rating
  pest or weed control at 125 g/ha: 100%
[7]; post-emergence, Postemergence, 250 g ai/ha, scale 0 to 100, read-out: Plant response rating, Cocklebur
  pest or weed control at 250 g/ha: 100%
[7]; pre-emergence, Preemergence, 16 g ai/ha, scale 0 to 100, 0 no effect, 100 complete control, read-out: Plant response rating, Cocklebur
  pest or weed control at 16 g/ha: 55%
[7]; [16]
  pest or weed control at 31 g/ha: 70%
  pest or weed control at 62 g/ha: 90%
[7]; pre-emergence, Preemergence, scale 0 to 100, read-out: Plant response rating, Cocklebur
  pest or weed control at 125 g/ha: 90%
[8]; [17]
  pest or weed control at 31 g/ha: 90%
  pest or weed control at 62 g/ha: 95%
[8]; post-emergence, Postemergence, scale 0 to 100 (0 no effect, 100 complete control), read-out: Lambsquarters plant response rating
  pest or weed control at 125 g/ha: 95%
[8]; post-emergence, Postemergence, 250 g ai/ha, scale 0 to 100, read-out: Plant response rating, Lambsquarters
  pest or weed control at 250 g/ha: 100%
[8]; pre-emergence, Preemergence, 16 g ai/ha, scale 0 to 100, 0 no effect, 100 complete control, read-out: Plant response rating, Lambsquarters
  pest or weed control at 16 g/ha: 0%
[8]; [18]
  pest or weed control at 31 g/ha: 70%
  pest or weed control at 62 g/ha: 80%
[8]; pre-emergence, Preemergence, scale 0 to 100, read-out: Plant response rating, Lambsquarters
  pest or weed control at 125 g/ha: 80%
[9]; [19]
  pest or weed control at 31 g/ha: 70%
  pest or weed control at 62 g/ha: 85%
[9]; post-emergence, Postemergence, 125 g ai/ha, scale 0 to 100 (0 no effect, 100 complete control), read-out: Ragweed plant response rating
  pest or weed control at 125 g/ha: 95%
[9]; post-emergence, Postemergence, 250 g ai/ha, scale 0 to 100, read-out: Plant response rating, Ragweed
  pest or weed control at 250 g/ha: 100%
[9]; pre-emergence, Preemergence, 16 g ai/ha, scale 0 to 100, 0 no effect, 100 complete control, read-out: Plant response rating, Ragweed
  pest or weed control at 16 g/ha: 10%
[9]; [20]
  pest or weed control at 31 g/ha: 65%
  pest or weed control at 62 g/ha: 80%
[10]; 31 g ai/ha, read-out: Plant response rating (scale of 0 to 100), Chickweed
  pest or weed control at 31 g/ha: 0%
[10]; 62 g ai/ha, read-out: Plant response rating (scale of 0 to 100), Chickweed
  pest or weed control at 62 g/ha: 0%
[10]; 250 g ai/ha, scale 0 to 100, read-out: Plant response rating, Chickweed
  pest or weed control at 250 g/ha: 70%
